No end group written: not given here.

Four substances from article PMC11858715 (Molecules, 2025) can be followed below.

Assay [1] deals with S2 (YIYRNYPDF), sense peptide surrogate of AtxA neurotoxic site (Vipera ammodytes ammodytes, UniProt P00626). Put plainly: biochemical. Format: binding. The following applies: 100% DMSO; 25 °C; read-out: KD (σ).
Assay [2] has as its target S1 (GMMILG), sense peptide surrogate of AtxA neurotoxic site (Vipera ammodytes ammodytes, UniProt P00626). Briefly: biochemical. The following applies: 100% DMSO; 25 °C; read-out: KD (σ). Format: binding.

For “INISIVGVK [S2A1, Ile-Asn-Ile-Ser-Ile-Val-Gly-Val-Lys]”, in assay [1], the dissociation constant Kd is 1.1 µM. On to SHHYEP [S1A1, Ser-His-His-Tyr-Glu-Pro], for which the Kd in assay [2] worked out at 4.9 µM.

Turning to SHHYSP [S1A2, Ser-His-His-Tyr-Ser-Pro], in assay [2], the Kd is 1.4 µM.

On to “VNISVIGIK [S2A2, Val-Asn-Ile-Ser-Val-Ile-Gly-Ile-Lys]”, for which the dissociation constant Kd in assay [1] was 8.9 µM.

For orientation: Kd means the concentration at which binding is half-saturated.
